# In ChEMBL document CHEMBL5465560, “Selectivity Literature for EUbOPEN Chemogenomic Library” (2024):
# Key:
# [1] = molecular target: T1, Receptor-interacting serine/threonine-protein kinase 4 (Homo sapiens) (UniProt P57078); experiment: Selectivity interaction (KinomeScan (DiscoverX)) EUB0001049a RIPK4; details: at 1 µM
# T1 sequence (whole entry): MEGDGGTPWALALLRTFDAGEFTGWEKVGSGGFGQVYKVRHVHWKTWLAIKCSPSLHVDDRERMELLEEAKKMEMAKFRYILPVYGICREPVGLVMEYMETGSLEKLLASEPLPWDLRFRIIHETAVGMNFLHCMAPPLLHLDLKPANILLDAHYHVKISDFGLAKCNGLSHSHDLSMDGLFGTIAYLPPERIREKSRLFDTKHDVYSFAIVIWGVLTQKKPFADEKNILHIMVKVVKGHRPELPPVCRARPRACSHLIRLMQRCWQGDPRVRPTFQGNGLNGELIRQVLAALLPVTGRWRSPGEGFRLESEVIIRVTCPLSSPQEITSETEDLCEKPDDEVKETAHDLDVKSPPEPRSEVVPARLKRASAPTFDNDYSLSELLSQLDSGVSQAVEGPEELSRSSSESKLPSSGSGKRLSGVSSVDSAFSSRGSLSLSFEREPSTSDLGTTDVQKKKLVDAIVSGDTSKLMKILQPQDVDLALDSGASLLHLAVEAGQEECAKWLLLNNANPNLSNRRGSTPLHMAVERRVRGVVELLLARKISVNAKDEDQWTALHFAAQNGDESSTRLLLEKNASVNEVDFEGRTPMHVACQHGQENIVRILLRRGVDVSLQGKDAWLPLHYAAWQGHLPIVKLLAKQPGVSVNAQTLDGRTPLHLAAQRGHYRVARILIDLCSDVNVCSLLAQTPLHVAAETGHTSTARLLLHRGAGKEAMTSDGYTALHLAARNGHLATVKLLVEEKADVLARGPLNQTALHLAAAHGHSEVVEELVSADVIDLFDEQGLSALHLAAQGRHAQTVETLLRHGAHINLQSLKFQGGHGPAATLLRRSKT
# [2] = molecular target: Serine/threonine-protein kinase B-raf (Homo sapiens) (UniProt P15056); experiment: Selectivity interaction (Kinase panel (KiNativ target engagement assay in Jurkat cells)) EUB0001635a BRAF; type: cell-based; details: Selectivity number of off-targets 0.0, Selectivity number of targets 233.0, Source Knowledge https://www.sciencedirect.com/science/article/pii/S2451945619300674?via%3Dihub, at 1 µM
# Sequence of Serine/threonine-protein kinase B-raf (Homo sapiens) (P15056 whole entry): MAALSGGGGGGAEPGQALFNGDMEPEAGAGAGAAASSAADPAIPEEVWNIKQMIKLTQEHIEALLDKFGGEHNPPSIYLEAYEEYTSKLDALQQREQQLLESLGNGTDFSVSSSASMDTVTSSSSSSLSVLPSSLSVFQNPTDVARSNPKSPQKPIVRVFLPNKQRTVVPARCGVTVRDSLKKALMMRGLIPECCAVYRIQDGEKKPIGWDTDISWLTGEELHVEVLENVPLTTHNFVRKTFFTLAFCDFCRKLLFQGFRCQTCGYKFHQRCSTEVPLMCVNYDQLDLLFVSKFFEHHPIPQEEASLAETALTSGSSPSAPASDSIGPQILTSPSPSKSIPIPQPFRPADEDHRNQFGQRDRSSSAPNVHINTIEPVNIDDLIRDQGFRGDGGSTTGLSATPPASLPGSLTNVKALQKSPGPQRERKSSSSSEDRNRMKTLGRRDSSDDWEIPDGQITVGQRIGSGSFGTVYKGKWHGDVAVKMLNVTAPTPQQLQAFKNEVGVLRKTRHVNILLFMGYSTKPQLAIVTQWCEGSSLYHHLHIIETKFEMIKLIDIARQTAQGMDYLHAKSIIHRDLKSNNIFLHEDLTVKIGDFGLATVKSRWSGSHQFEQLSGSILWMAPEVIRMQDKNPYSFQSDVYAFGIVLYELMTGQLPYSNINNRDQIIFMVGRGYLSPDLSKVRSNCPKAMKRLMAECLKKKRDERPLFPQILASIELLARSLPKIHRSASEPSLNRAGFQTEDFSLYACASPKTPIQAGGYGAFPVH
# [3] = molecular target: Ribosomal protein S6 kinase alpha-2 (Homo sapiens) (UniProt Q15349); experiment: Selectivity interaction (ActivX KiNativ screen (kinase selectivity in THP-1 cell lysates)) EUB0000639a RPS6KA2; type: subcellular; details: lysate, at 0.04 µM
# Sequence of Ribosomal protein S6 kinase alpha-2 (Homo sapiens) (Q15349 whole entry): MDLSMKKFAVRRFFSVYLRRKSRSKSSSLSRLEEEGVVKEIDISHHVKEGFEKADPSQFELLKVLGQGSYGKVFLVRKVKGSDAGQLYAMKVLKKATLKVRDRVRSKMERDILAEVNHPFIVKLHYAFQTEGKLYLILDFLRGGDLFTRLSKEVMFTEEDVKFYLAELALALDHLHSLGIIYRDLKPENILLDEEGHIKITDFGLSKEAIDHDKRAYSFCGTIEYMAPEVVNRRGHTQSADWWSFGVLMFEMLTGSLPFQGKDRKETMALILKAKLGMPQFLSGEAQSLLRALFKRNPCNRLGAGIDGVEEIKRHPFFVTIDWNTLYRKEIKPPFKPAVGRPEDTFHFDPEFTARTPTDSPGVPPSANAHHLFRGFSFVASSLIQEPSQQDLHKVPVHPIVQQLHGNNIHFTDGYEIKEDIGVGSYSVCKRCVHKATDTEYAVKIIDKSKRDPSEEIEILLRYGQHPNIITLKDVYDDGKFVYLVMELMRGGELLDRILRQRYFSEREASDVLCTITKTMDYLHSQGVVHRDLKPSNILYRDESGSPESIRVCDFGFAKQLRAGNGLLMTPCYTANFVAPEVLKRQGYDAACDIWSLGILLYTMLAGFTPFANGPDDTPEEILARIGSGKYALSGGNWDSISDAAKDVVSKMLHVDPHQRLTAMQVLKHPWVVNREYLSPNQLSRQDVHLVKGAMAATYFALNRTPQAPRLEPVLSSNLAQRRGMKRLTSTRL
# [4] = molecular target: T2, Serine/threonine-protein kinase ULK3 (Homo sapiens) (UniProt Q6PHR2); experiment: Selectivity interaction (ActivX KiNativ screen (kinase selectivity in THP-1 cell lysates)) EUB0000639a ULK3; type: subcellular; details: lysate, at 1 µM
# T2 sequence (whole entry): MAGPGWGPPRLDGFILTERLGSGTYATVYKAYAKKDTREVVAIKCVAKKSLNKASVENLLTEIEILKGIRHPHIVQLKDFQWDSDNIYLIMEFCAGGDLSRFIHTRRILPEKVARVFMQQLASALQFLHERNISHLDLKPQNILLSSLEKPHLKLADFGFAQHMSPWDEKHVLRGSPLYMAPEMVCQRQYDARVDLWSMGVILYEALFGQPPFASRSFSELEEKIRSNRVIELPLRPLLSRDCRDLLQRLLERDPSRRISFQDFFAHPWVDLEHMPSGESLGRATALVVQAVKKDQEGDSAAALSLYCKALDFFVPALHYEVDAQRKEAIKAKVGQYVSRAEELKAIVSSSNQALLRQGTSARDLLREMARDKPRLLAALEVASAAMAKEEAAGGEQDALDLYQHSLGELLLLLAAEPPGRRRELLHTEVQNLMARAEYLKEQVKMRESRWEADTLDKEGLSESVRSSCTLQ
# [5] = molecular target: LIM domain kinase 2 (Homo sapiens) (UniProt P53671); details: at 10 µM
# Sequence of LIM domain kinase 2 (Homo sapiens) (P53671 whole entry, looked up, the tested form may be a part): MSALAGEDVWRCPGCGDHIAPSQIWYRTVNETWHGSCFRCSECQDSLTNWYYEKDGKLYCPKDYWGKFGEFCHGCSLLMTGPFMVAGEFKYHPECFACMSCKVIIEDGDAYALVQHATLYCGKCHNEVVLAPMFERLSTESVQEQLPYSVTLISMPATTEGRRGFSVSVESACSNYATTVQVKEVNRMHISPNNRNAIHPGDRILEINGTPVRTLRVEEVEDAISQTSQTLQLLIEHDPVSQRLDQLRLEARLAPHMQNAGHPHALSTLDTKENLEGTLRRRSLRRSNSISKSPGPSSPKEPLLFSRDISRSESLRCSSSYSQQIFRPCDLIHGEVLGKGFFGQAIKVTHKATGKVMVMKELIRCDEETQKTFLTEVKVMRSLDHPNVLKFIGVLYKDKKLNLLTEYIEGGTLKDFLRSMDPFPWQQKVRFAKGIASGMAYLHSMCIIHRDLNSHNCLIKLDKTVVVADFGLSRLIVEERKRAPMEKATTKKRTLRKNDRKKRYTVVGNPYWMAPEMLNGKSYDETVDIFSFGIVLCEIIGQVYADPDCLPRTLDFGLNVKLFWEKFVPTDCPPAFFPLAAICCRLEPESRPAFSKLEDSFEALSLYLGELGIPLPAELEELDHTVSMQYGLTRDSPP
# [6] = molecular target: Glycogen synthase kinase-3 alpha (Homo sapiens, UniProt P49840); details: at 10 µM
# Sequence of Glycogen synthase kinase-3 alpha (P49840 2-483 limits assumed): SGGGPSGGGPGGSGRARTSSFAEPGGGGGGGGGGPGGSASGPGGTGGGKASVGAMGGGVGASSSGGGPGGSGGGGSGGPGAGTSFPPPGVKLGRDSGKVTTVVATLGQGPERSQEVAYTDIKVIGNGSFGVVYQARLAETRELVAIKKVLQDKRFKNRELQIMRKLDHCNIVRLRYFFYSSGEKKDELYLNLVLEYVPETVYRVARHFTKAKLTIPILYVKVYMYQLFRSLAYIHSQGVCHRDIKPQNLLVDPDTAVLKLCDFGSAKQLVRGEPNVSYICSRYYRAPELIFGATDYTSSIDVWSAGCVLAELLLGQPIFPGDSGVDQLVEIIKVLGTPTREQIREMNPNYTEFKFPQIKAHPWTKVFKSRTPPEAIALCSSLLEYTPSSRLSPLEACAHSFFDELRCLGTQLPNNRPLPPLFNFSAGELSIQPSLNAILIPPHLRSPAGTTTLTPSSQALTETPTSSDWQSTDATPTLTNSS
# [7] = molecular target: T3, Ephrin type-B receptor 1 (Homo sapiens) (UniProt P54762); details: at 10 µM
# T3 sequence (whole entry): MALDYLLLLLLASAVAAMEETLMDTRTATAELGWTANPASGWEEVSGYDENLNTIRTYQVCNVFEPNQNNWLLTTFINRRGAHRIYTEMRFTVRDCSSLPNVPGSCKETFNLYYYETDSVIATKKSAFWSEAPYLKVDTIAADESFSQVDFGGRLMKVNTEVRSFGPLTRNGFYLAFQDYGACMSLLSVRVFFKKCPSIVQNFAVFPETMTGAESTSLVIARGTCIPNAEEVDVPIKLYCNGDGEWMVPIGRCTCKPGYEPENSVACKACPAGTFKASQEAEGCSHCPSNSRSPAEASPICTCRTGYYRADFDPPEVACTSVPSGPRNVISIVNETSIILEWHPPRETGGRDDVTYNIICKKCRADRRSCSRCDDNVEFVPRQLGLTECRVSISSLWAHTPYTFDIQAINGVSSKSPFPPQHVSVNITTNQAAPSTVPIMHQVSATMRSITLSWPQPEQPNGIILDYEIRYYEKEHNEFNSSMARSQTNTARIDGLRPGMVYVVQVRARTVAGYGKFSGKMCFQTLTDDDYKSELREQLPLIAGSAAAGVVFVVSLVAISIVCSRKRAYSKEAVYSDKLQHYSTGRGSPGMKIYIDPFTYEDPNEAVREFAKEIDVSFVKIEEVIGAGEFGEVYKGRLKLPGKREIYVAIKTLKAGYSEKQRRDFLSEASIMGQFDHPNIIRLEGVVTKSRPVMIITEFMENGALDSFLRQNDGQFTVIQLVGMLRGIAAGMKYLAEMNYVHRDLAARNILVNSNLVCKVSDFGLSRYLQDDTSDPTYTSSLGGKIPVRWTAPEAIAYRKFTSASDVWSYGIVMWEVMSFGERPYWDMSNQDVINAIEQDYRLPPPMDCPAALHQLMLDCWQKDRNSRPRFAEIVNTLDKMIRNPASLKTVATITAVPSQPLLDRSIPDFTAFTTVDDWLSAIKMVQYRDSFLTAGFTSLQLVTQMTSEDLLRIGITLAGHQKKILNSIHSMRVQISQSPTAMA
# [8] = molecular target: cAMP-dependent protein kinase catalytic subunit alpha (Homo sapiens, UniProt P17612); experiment: Selectivity interaction (KinomeScan (DiscoverX)) EUB0001619a PRKACA; details: at 1 µM
# [9] = molecular target: Serine/threonine-protein kinase 26 (Homo sapiens, UniProt Q9P289); experiment: Selectivity interaction (Upstate Kinase Profiler service (Millipore)) EUB0000056c STK26; details: at 1 µM
# Sequence of Serine/threonine-protein kinase 26 (Q9P289 2-416 limits assumed): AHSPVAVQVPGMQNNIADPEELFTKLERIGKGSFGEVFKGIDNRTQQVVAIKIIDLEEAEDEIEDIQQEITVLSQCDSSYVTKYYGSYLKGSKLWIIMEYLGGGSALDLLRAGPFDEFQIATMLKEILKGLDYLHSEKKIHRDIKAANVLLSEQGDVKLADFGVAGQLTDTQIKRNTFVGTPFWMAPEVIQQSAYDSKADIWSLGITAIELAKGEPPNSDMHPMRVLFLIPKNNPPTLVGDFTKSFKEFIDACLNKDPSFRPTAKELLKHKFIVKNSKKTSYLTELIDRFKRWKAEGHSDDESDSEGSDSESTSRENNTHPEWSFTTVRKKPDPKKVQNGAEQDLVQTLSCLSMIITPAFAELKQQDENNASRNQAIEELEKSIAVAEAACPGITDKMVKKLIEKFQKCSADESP
# [10] = molecular target: Mitogen-activated protein kinase 9 (Homo sapiens, UniProt P45984); experiment: Selectivity interaction (Upstate Kinase Profiler service (Millipore)) EUB0000056c MAPK9; details: at 1 µM
# Sequence of Mitogen-activated protein kinase 9 (P45984 whole entry, looked up): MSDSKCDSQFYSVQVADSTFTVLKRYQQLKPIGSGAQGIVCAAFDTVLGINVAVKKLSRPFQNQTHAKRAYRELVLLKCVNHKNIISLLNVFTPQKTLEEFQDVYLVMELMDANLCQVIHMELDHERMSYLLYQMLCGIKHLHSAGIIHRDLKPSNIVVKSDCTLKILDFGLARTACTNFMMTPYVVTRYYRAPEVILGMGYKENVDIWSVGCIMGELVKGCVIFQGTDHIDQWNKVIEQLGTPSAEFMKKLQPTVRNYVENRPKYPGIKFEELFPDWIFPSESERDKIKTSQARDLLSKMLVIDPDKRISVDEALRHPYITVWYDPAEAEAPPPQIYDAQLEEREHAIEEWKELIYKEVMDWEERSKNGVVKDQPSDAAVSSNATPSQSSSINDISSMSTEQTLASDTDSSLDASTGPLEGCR
# [11] = molecular target: Tyrosine-protein kinase JAK2 (Homo sapiens, UniProt O60674); experiment: Selectivity interaction (KinomeScan (DiscoverX)) EUB0000607a JAK2; details: at 10 µM
# Sequence of Tyrosine-protein kinase JAK2 (O60674 whole entry): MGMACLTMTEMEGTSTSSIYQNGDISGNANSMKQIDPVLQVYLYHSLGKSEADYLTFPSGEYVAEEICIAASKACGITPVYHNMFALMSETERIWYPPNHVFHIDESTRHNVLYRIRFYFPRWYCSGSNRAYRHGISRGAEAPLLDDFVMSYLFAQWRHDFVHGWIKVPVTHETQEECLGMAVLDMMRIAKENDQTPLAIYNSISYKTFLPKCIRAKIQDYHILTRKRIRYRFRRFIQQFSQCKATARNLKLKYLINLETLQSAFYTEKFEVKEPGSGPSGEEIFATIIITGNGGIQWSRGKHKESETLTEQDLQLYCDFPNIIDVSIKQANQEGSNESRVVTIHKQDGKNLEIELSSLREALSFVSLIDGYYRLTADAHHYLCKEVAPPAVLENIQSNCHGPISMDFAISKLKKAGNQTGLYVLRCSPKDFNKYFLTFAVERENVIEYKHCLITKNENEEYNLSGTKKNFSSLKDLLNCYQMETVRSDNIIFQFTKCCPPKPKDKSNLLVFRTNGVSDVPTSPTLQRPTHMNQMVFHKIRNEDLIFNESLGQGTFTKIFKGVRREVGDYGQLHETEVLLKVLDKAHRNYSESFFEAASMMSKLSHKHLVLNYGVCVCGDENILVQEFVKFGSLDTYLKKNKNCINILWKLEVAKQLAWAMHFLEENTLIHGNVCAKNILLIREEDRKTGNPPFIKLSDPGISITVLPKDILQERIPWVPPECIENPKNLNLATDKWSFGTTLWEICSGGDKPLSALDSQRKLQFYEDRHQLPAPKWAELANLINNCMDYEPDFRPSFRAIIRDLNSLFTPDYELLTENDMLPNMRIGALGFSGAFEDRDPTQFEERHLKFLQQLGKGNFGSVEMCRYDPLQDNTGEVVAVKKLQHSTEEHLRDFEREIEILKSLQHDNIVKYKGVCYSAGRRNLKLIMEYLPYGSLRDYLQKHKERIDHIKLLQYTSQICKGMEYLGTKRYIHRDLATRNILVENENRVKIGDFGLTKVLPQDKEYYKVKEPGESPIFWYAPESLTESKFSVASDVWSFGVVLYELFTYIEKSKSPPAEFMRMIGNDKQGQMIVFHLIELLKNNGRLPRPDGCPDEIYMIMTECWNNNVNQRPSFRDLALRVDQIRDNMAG
structure (smiles),measurement,setting,value
COc1cc(Nc2nc(C)cc(-c3cnn4nc(OC)ccc34)n2)cc(C(F)(F)F)c1,% of control,[1],89%
C=CC(=O)Nc1ccc(C(=O)Nc2[nH]nc3c2CN(C(=O)N[C@H](CN(C)C)c2ccccc2)C3(C)C)cc1,% of engagement,[2],2.4%
CC[C@@H]1[C@H](F)C(=O)N[C@@H]1COc1nccc2cc(C(N)=O)c(OC)cc12 [ZIMLOVISERTIB],% of inhibition,[3],-7.6%
same,% of inhibition,[4],-4.6%
COCC(=O)NC/C=C/c1ccc2ncnc(Nc3ccc(Oc4ccc(C)nc4)c(C)c3)c2c1 [CP-724714],% of control,[5],100%
Cc1cc([C@@H](C)Nc2ccccc2C(=O)O)c2nc(N3CCOCC3)cc(=O)n2c1 [AZD-6482],% of control,[6],100%
same,% of control,[7],98%
N#Cc1cccc(-c2c[nH]c3ncnc(N4CCOCC4)c23)c1,% of control,[8],94%
Cc1ccc(-c2ccc3c(ccc4sc5c(c43)NC[C@@H](C)NC5=O)n2)cn1,% of inhibition,[9],15%
same,% of inhibition,[10],-12%
CNC(=O)Nc1ccc(-c2nc(N3CC4CCC(C3)O4)c3cnn(C4CCC5(CC4)OCCO5)c3n2)cc1,% of control,[11],100%
